Several values for one entry are separate records, joined by “and”; a condition that tells them apart may be missing. Equal values may be shown once. Entries after “also recorded” stand apart in the source; their conditions may differ. Read-outs that look alike come from different tables or passages of the source.
Assays:
hOGA [1] = target: T1, hOGA (Homo sapiens, UniProt O60502); assay: hOGA inhibition, fluorogenic 4MU-NAG substrate; format: biochemical; conditions: for IC50: 80 μM 4MU-GlcNAc (Km), 60 min, pH 5.7; for hOGA BEI (Binding Efficiency Index): BEI = -log(Ki)/M, M in kDa, Ki from IC50 by Cheng-Prusoff; for Selectivity (HexA/B/hOGA): ratio of HexA/B to hOGA inhibition constants
T1 construct: made in house
T1 sequence (O60502 1-916): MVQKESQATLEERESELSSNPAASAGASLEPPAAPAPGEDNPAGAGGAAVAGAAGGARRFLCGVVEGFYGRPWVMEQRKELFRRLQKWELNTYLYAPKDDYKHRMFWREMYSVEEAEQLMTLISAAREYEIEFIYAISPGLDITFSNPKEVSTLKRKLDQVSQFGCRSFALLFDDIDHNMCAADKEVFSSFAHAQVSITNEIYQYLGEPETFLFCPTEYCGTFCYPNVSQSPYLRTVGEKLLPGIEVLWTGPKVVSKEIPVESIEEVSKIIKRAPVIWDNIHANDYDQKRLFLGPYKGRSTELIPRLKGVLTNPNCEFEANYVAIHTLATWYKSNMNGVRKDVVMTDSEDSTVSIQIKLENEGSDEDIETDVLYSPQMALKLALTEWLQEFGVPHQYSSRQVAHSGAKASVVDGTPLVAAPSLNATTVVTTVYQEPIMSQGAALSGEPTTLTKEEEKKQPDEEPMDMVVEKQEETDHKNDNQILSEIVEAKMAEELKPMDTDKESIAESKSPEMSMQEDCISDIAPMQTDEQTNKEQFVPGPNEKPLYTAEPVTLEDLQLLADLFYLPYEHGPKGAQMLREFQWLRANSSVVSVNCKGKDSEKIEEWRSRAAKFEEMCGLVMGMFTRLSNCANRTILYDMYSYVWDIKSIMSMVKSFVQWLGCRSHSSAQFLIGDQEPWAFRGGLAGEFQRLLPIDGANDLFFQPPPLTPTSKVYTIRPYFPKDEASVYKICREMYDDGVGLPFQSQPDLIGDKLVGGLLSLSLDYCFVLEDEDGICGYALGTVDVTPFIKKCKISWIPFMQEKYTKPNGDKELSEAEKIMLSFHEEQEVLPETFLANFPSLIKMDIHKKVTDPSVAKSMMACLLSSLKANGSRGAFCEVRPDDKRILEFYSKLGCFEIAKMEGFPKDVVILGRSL

human hexosaminidase A/B = assay: HexA/B inhibition, fluorogenic 4MU-NAG substrate; format: biochemical; conditions: 230 μM substrate (Km), 15 min, pH 5.7
Experimental: Further kinetic experiments to determine the mode of inhibition were carried out according to the procedure described previously. […] IC50 measurements with CpOGA, hOGA and a mixture of human hexosaminidase A/B activities (Sigma A6152) against the compounds were performed using the fluorogenic 4MU-NAG substrate and standard reaction mixtures as described previously with some changes [[39,31,40]]. Standard reaction mixtures (50 μl) contained 0.2 nM CpOGA, 2 nM hOGA or 50 μ units unit/ml HexA/B in McIlvaine buffer (0.2 M Na2HPO4 mixed with 0.1 M citric acid to pH 5.7) supplemented with 0.1 mg/ml BSA. […] The reactions were run at room temperature for 7 min (CpOGA), 60 min (hOGA) or 15 min (HexA/B).

CpOGA [2] = target: T2, CpOGA (Clostridium perfringens, UniProt Q0TR53); assay: biochemical
CpOGA [3] = target: T2, CpOGA; format: biochemical
CpOGA [4] = target: T2, CpOGA; conditions: read-out: CpOGA Ki; cited from earlier work
CpOGA [5] = target: T2, CpOGA; conditions: read-out: CpOGA IC50; cited from earlier work
hOGA [6] = target: T1, hOGA; conditions: cited from earlier work
CpOGA [7] = target: T2, CpOGA; assay: biochemical; conditions: read-out: inhibition of CpOGA in the screen

T2 sequence (Q0TR53 31-624 limits assumed): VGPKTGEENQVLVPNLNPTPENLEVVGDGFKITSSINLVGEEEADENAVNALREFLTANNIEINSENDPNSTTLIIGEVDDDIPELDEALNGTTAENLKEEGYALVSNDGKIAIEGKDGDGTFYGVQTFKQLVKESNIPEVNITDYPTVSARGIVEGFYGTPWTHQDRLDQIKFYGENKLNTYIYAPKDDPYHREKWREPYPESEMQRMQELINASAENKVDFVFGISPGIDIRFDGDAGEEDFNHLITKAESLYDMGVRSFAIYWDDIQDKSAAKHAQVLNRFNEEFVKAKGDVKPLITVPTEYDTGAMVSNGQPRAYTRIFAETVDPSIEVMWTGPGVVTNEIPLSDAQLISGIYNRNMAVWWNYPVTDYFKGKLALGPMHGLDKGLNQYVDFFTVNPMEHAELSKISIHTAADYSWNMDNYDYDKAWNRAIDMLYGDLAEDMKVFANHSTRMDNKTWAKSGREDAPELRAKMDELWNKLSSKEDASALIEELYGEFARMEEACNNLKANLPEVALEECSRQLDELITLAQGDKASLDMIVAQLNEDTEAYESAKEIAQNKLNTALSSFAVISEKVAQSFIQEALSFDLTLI

Row | Compound | IC50 (hOGA [1]; 2 nM hOGA, read-out: hOGA IC50) | hOGA BEI (Binding Efficiency Index) (hOGA [1]) | Selectivity (HexA/B/hOGA) (hOGA [1]) | IC50 (human hexosaminidase A/B) [µM] | inhibition mode against CpOGA (CpOGA [3]) | other results
1 | Cn1c(=O)c2c(ncn2CC(O)CO)n(C)c1=O (centres unmarked) [Diprophylline, diprophylline] | > 100 µM | 16 | 1.6 | 200 ± 30 | compete for binding to the same CpOGA active site; also recorded: competitive inhibitor | IC50 (CpOGA [2]): 60 ± 10 µM
2 | CC(=O)N[C@H]1/C(=N/OC(=O)Nc2ccccc2)O[C@H](CO)[C@@H](O)[C@@H]1O [PUGNAc] | – | – | – | – | – | Ki (CpOGA [4]): 0.005 µM
3 | CC1CCC(NC(=O)N(CCCl)N=O)CC1 (centres unmarked) [Semustine, semustine] | – | 16 | 9 | 2500 | compete for binding to the same CpOGA active site | IC50 (hOGA [1]; hOGA IC50, 2 nM hOGA): > 100 µM
4 | CNc1ncnc2nc[nH]c12 [N^6-methyladenine] | 4 ± 0.3 µM | – | – | 300 | – | –
5 | CN(N=O)C(=O)N[C@H]1C(O)O[C@H](CO)[C@@H](O)[C@@H]1O (some centres unmarked) [Streptozotocin, streptozotocin] | – | 11 | 30 | – | – | IC50 (CpOGA [5]): 30 µM; Ki (hOGA [6]; Ki value from literature, read-out: hOGA Ki (printed in hOGA IC50 column)): 1500 µM
6 | O=C1CC2(CCCC2)CC(=O)N1CCCCN1CCN(c2ncccn2)CC1 [Buspirone, buspirone] | 25 ± 0.1 µM | – | – | 47 ± 3 | – | –
7 | CC(=O)Nc1nnc(S(N)(=O)=O)s1 [Acetazolamide, acetazolamide] | 47 ± 0.1 µM | – | – | – | – | –
8 | c1ccc(CNc2ncnc3nc[nH]c23)cc1 [6-benzylaminopurine] | – | – | – | – | – | inhibition at 30.2 µM (CpOGA [7]): 30%
9 | CC(=O)N1CCN(c2ccc(OCC3COC(Cn4ccnc4)(c4ccc(Cl)cc4Cl)O3)cc2)CC1 (centres unmarked) [Ketoconazole, ketoconazole] | 4 µM and 4.3 µM | – | – | 11 ± 1 | compete for binding to the same CpOGA active site | –
10 | CCCC1=N[C@@H]2[C@@H](O)[C@H](O)[C@@H](CO)O[C@@H]2S1 [NButGT] | – | – | – | – | – | selectivity for hOGA (hOGA [6]; thiazoline derivative, selectivity for hOGA): 600 fold

Reference: paper PMC2828546, “Screening-based discovery of drug-like O-GlcNAcase inhibitor scaffolds” (Febs Letters, 2010)
